From article PMC8320107 (ACS Omega, 2021) come the findings set out here.

The target of this assay is AChE (Homo sapiens, UniProt P22303). Kind of assay: In vitro AChE inhibitory activity, Ellman's colorimetric method. It counts as biochemical. As to conditions: for relative potency (%): AChE inhibitory potency relative to donepezil hydrochloride (100).
Where [1] appears, read: in vitro AChE inhibition, mean ± standard error of the mean of three experiments.

Like-named read-outs stand apart in the source and are kept apart here.

Chain of AChE (P22303 32-614): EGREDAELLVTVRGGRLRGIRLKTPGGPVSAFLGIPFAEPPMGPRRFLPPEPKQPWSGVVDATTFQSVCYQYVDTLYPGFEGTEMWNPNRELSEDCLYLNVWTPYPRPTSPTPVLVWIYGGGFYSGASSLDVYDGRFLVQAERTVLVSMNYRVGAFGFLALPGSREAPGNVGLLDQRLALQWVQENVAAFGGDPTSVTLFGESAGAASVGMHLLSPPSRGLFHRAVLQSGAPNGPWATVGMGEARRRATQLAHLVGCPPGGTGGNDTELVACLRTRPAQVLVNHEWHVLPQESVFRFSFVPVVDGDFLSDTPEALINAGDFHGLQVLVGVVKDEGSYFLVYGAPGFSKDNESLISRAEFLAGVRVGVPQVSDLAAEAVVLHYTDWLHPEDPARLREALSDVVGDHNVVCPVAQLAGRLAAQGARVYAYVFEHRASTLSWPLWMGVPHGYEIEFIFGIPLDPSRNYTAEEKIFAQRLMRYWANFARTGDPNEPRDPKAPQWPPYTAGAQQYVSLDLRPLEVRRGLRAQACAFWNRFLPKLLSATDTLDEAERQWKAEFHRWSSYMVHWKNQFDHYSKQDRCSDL

Turning to `Cc1ccc(C=C2SC(Nc3nc(-c4ccc(C)cc4)cs3)=NC2=O)cc1` [Compound 8, 2-[4-(p-Tolylthiazol-2-yl)amino]-5-(4-methylbenzylidene)-4,5-dihydrothiazole-4-one], half-maximal inhibition under setting [1] (IC50) required 501 ± 14 nM.
With `Cc1ccc(-c2csc(NC3=NC(=O)C(=Cc4ccc(Cl)cc4Cl)S3)n2)cc1` [Compound 12, 2-[4-(p-Tolylthiazol-2-yl)amino]-5-(2,4-dichlorobenzylidene)-4,5-dihydrothiazole-4-one], half-maximal inhibition under setting [1] (IC50) required 336 ± 9.1 nM.
`Cc1ccc(-c2csc(NC3=NC(=O)C(=Cc4ccc(Br)s4)S3)n2)cc1` [Compound 14, 2-[4-(p-Tolylthiazol-2-yl)amino]-5-[(5-bromothiophen-2-yl)methylene]-4,5-dihydrothiazole-4-one]: the IC50 under setting [1] was 380 ± 10 nM.
Same read-out and setting: to `COc1ccc(-c2csc(NC3=NC(=O)C(=Cc4ccc(C)cc4)S3)n2)cc1` [Compound 15, 2-[4-(4-Methoxyphenylthiazol-2-yl)amino]-5-(4-methylbenzylidene)-4,5-dihydrothiazole-4-one] belongs 375 ± 10 nM.
For `COc1ccc(-c2csc(NC3=NC(=O)C(=Cc4ccc(OC)c(OC)c4)S3)n2)cc1` [Compound 17, 2-[4-(4-Methoxyphenylthiazol-2-yl)amino]-5-(3,4-dimethoxybenzylidene)-4,5-dihydrothiazole-4-one], the “relative potency (%)” value came to 31.26%. Under setting [1], this compound displayed an IC50 of 176 ± 4.8 nM.
Consider `COc1ccc(-c2csc(NC3=NC(=O)C(=Cc4ccc(Cl)cc4)S3)n2)cc1` [Compound 18, 2-[4-(4-Methoxyphenylthiazol-2-yl)amino]-5-(4-chlorobenzylidene)-4,5-dihydrothiazole-4-one], for which the “relative potency (%)” value was 28.43%. Under setting [1], this compound showed a half-inhibitory concentration (IC50) of 193 ± 5.3 nM.
Turning to `COc1ccc(-c2csc(NC3=NC(=O)C(=Cc4ccc(Cl)cc4Cl)S3)n2)cc1` [Compound 19, 2-[4-(4-Methoxyphenylthiazol-2-yl)amino]-5-(2,4-dichlorobenzylidene)-4,5-dihydrothiazole-4-one], the IC50 under setting [1] came to 731 ± 20 nM.
For `COc1ccc(-c2csc(NC3=NC(=O)C(=Cc4cccs4)S3)n2)cc1` [Compound 20, 2-[4-(4-Methoxyphenylthiazol-2-yl)amino]-5-[(thiophen-2-yl)methylene]-4,5-dihydrothiazole-4-one], half-maximal inhibition under setting [1] (IC50) required 260 ± 7.1 nM.
Take `COc1ccc(-c2csc(NC3=NC(=O)C(=Cc4ccc(Br)s4)S3)n2)cc1` [Compound 21, 2-[4-(4-Methoxyphenylthiazol-2-yl)amino]-5-[(5-bromothiophen-2-yl)methylene]-4,5-dihydrothiazole-4-one]: the “relative potency (%)” value turned out to be 29.28%. The compound also displayed an IC50 under setting [1] of 188 ± 5.1 nM.
Regarding `CCN=C1SCC(=O)N1c1nc(-c2ccc(C)cc2)cs1` [Compound 28, 2-Ethylimino-3-[4-(p-tolyl)thiazol-2-yl]thiazolidin-4-one], the IC50 came to 478 ± 13 nM.
On the same count and under the same terms, to `Cc1ccc(-c2csc(N3C(=O)CSC3=NCc3ccccc3)n2)cc1` [Compound 29, 2-Benzylimino-3-[4-(p-tolyl)thiazol-2-yl]thiazolidin-4-one] belongs 188 ± 5.1 nM; to `CCN=C1SCC(=O)N1c1nc(-c2ccc(OC)cc2)cs1` [Compound 30, 2-Ethylimino-3-[4-(4-methoxyphenyl)thiazol-2-yl]thiazolidin-4-one], 346 ± 9.4 nM.
On to `COc1ccc(-c2csc(N3C(=O)CSC3=NCc3ccccc3)n2)cc1` [Compound 31, 2-Benzylimino-3-[4-(4-methoxyphenyl)thiazol-2-yl]thiazolidin-4-one], for which it took 152 ± 4.1 nM to reach half-maximal inhibition (IC50) and the “relative potency (%)” value is 36.08%.
As for `COc1ccc(-c2csc(N3C(=O)C(=Cc4ccc(OC)c(OC)c4)SC3=NCc3ccccc3)n2)cc1` [Compound 32, 2-(Benzylimino)-5-(3,4-dimethoxybenzylidene)-3-[4-(4-methoxyphenyl)thiazol-2-yl]thiazolidin-4-one], the IC50 is 450 ± 12 nM.
On to `COc1ccc(-c2csc(N3C(=O)C(=Cc4ccc(Cl)cc4Cl)SC3=NCc3ccccc3)n2)cc1` [Compound 33, 2-(Benzylimino)-5-(2,4-dichlorobenzylidene)-3-[4-(4-methoxyphenyl)thiazol-2-yl]thiazolidin-4-one], for which half-maximal inhibition (IC50) was put at 188 ± 5.1 nM and the “relative potency (%)” value was found to be 29.27%.
